Tests used:
[1] = Particle size of EPO mRNA-encapsulating lipid particles; format: physicochemical
Procedure: (§1) The compounds described in Table 1, the neutral lipid, cholesterol (product name: Cholesterol HP; NIPPON FINE CHEMICAL CO., LTD.), and 1,2-dimyristoyl-rac-glycero-3-(methylpolyoxyethylene 2000) (hereinafter, called DMG-PEG2000) (product name: SUNBRIGHT® GM-020; NOF corporation) were dissolved in ethanol at a molar ratio in Table 1 such that the total lipid concentration became 20 mmol/L, thereby obtaining an oil phase.
(§2) As the neutral lipid, 1,2-distearoyl-sn-glycero-3-phosphocholine (product name: COATSOME® MC-8080; NOF corporation) (hereinafter, DSPC), or L-α-dioleoyl phosphatidylethanolamine (Hereinafter, DOPE) (product name: COATSOME® ME-8181; NOF corporation), or 1,2-dioleoyl-sn-glycero-3-phosphocholine (hereinafter, DOPC) (product name: COATSOME® MC-8181; NOF corporation) was used.
(§3) EPO mRNA (product name: CleanCap EPO mRNA (5moU); TriLink) was diluted with 50 mmol/L citrate buffer having a pH 4 such that the weight ratio of total lipid concentration to mRNA concentration is about 16:1 to 64:1, thereby obtaining a water phase. Then, the water phase and the oil phase were mixed together using NanoAssemblr (Precision NanoSystems) such that the volume ratio of water phase:oil phase was 3:1, and the mixed solution was 1.5-fold diluted with phosphate buffered saline (PBS), thereby obtaining a dispersion liquid of mRNA lipid particles. The dispersion liquid was dialyzed with a 10% aqueous sucrose solution using a dialysis cassette (Slide-A-Lyzer G2, MWCO: 10 kD, Thermo Fisher Scientific) to remove ethanol, thereby obtaining EPO mRNA-encapsulating lipid particles.
The particle size of the mRNA-encapsulating lipid particles was measured by 10-fold diluting the dispersion liquid of lipid particle with phosphate buffered saline (PBS) using Zeta-potential & Particle size Analyzer ELS-Z2 (Otsuka Electronics Co., Ltd.).

EPO mRNA = assay: mRNA encapsulation rate of EPO mRNA-encapsulating lipid particles; format: physicochemical
Procedure: as §1, §2, §3
15 to 30 μL of a 3 mol/L aqueous sodium acetate solution and 4.5 to 9 μL of glycogen were added to 30 to 60 μL of the lipid particles retaining mRNA, and 0.75 to 1.5 mL of ethanol was added thereto, so that only the nucleic acids were precipitated while the lipid was dissolved. Then, the supernatant was removed by centrifugation. The precipitates were air-dried for 15 minutes or longer, then water was added thereto to redissolve the precipitates, and the concentration thereof was measured using Nanodrop NF1000 (Thermo Fisher Scientific), thereby quantifying the total mRNA concentration.
The mRNA concentration was quantified using a Quant-iT RiboGreen RNA Assay Kit (Thermo Fisher Scientific) according to the protocol. First, a 20×TE buffer included in the above-described kit was diluted with water, thereby obtaining a 1×TE buffer. TE represents Tris/EDTA (ethylenediaminetetraacetic acid). In order to quantify only mRNA in the outer water phase, the dispersion liquid of lipid particles retaining mRNA was 10,000-fold diluted with the 1×TE buffer. 100 μL of the 10,000-fold diluted dispersion liquid of lipid particles was put into a 96-well plate, then 100 μL of a RiboGreen reagent (reagent included in the Quanti-iT Ribogreen RNA Assay Kit described above) 2,000-fold diluted with the 1×TE buffer was added to a sample, and fluorescence (excitation wavelength: 485 nm, fluorescence wavelength: 535 nm) was measured using a plate reader Infinite F200 (TECAN), thereby quantifying the mRNA concentration in the outer water phase.
By using the quantification results of the total mRNA concentration and the mRNA concentration in the outer water phase that were obtained through the above steps, the mRNA encapsulation rate of the mRNA lipid particles was calculated according to the following Equation.
mRNA encapsulation rate (%)=(total mRNA concentration-mRNA concentration in outer water phase)/total mRNA concentration×100

human EPO = assay: Measurement of EPO enzyme activity (EPO protein in blood plasma of mice after intravenous administration of EPO mRNA lipid particles); format: in vivo; details: C57BL/6J mice, tail-vein i.v., mRNA 0.1 mg/kg, plasma 20 to 24 hours
Procedure: as §1, §2, §3
The dispersion liquid of mRNA lipid particles prepared in above-described <Preparation of EPO mRNA-encapsulating lipid particles> was tail-vein intravenously administered to C57BL/6J mice at a mRNA dosage of 0.1 mg/kg. 20 to 24 hours after the administration, blood was collected from the caudal vena cava, thereby obtaining blood plasma. The human EPO enzyme activity was quantified by using the obtained blood plasma and ab119522 Erythropoietin (EPO) Human Elisa Kit (Abcam.plc). The quantitative value is described as a relative amount of EPO protein in a case where Comparative Example 1 is 1.

[2] = aminolipid 50 / DSPC 10 / cholesterol 38.5 / DMG-PEG2000 1.5 mol %, lipid/nucleic acid 20 wt/wt
[3] = aminolipid 50 / DOPE 10 / cholesterol 38.5 / DMG-PEG2000 1.5 mol %, lipid/nucleic acid 64 wt/wt

| Structure (SMILES) | Particle size [1, 2] [nm] | Nucleic acid encapsulation rate (EPO mRNA; [2]) [%] | Relative amount of EPO protein (with respect to Comparative Example 1) (human EPO; [2]) | Particle size [1, 3] [nm] | Nucleic acid encapsulation rate (EPO mRNA; [3]) [%] | Relative amount of EPO protein (with respect to Comparative Example 1) (human EPO; [3]) |
| --- | --- | --- | --- | --- | --- | --- |
| CCCCC/C=C\C/C=C\CCCCCCCCC(CCCCCCCC/C=C\C/C=C\CCCCC)OC(=O)CCCN(C)C [Comparative Example 1, reference compound] | 89.0 | 93.4 | 1 | – | – | – |
| CCCCCCCC/C=C\CCCCCCCC(=O)OCCN(CCOC(=O)OC(CCCCCC)CCCCCCCCC(=O)OCC(CCCCCC)CCCCCCCC)CCN(CC)CC (stereo not drawn) [Comparative Example 2, reference compound] | – | – | – | 88.8 | 100 | 0.74 |
| CCCCCCC(CCCC)COC(=O)CCCCCCCCC(CCCCCC)OC(=O)OCCN(CCCN(CC)CC)CCOC(=O)OC(CCCCCC)CCCCCCCCC(=O)OCC(CCCC)CCCCCC (stereo not drawn) [Example 3, Bis(2-butyloctyl) 16-(3-(diethylamino)propyl)-10,22-dihexyl-12,20-dioxo-11,13,19,21-tetraoxa-16-azahentriaco ntanedioate] | – | – | – | 81.2 | 97.8 | 1.92 |
| CCCCCCC(CCCC(=O)OCC(CCCCC)CCCCC)OC(=O)OCCN(CCOC(=O)OC(CCCCCC)CCCC(=O)OCC(CCCCC)CCCCC)CCN(CC)CC (stereo not drawn) [Example 10, bis(2-pentylheptyl) 11-(2-(diethylamino)ethyl)-5,17-dihexyl-7,15-dioxo-6,8,14,16-tetraoxa-11-azahenicosanedioate] | – | – | – | 88.0 | 100.0 | 2.39 |
| CCCCCCC(CCCC(=O)OCC(CCCCC)CCCCC)OC(=O)OCCN(CCOC(=O)OC(CCCCCC)CCCC(=O)OCC(CCCCC)CCCCC)CCN(C)C (stereo not drawn) [Example 11, Bis(2-pentylheptyl) 11-(2-(dimethylamino)ethyl)-5,17-dihexyl-7,15-dioxo-6,8,14,16-tetraoxa-11-azahenicosanedio ate] | – | – | – | 73.2 | 98.6 | 2.70 |
| CCCCCCC(CCCC(=O)OCC(CCCCC)CCCCC)OC(=O)OCCN(CCCCN(CC)CC)CCOC(=O)OC(CCCCCC)CCCC(=O)OCC(CCCCC)CCCCC (stereo not drawn) [Example 14, Bis(2-pentylheptyl) 11-(4-(diethylamino)butyl)-5,17-dihexyl-7,15-dioxo-6,8,14,16-tetraoxa-11-azahenicosanedioate] | – | – | – | 75.9 | 98.8 | 3.85 |
| CCCCCCC(CCCC(=O)OCC(CCCCC)CCCCC)OC(=O)OCCCN(CCCOC(=O)OC(CCCCCC)CCCC(=O)OCC(CCCCC)CCCCC)CCN(CC)CC (stereo not drawn) [Example 15, Bis(2-pentylheptyl) 12-(2-(diethylamino)ethyl)-5,19-dihexyl-7,17-dioxo-6,8,16,18-tetraoxa-12-azatricosanedioate] | – | – | – | 76.8 | 97.5 | 1.92 |
| CCCCCCC(CCCC(=O)OCC(CCCCC)CCCCC)OC(=O)OCCCCN(CCCCOC(=O)OC(CCCCCC)CCCC(=O)OCC(CCCCC)CCCCC)CCN(CC)CC (stereo not drawn) [Example 16, Bis(2-pentylheptyl) 13-(2-(diethylamino)ethyl)-5,21-dihexyl-7,19-dioxo-6,8,18,20-tetraoxa-13-azapentacosanedio ate] | – | – | – | 69.4 | 97.3 | 2.53 |
| CCCCCCC(CCC(=O)OCC(CCCCC)CCCCC)OC(=O)OCCN(CCOC(=O)OC(CCCCCC)CCC(=O)OCC(CCCCC)CCCCC)CCN(CC)CC (stereo not drawn) [Example 17, Bis(2-pentylheptyl) 10-(2-(diethylamino)ethyl)-4,16-dihexyl-6,14-dioxo-5,7,13,15-tetraoxa-10-azanonadecanedioate] | – | – | – | 81.7 | 96.9 | 2.93 |
| CCCCCC(CCCCC)COC(=O)CCCC(C)OC(=O)OCCN(CCOC(=O)OC(C)CCCC(=O)OCC(CCCCC)CCCCC)CCN(CC)CC (stereo not drawn) [Example 19, Bis(2-pentylheptyl) 11-(2-(diethylamino)ethyl)-5,17-dimethyl-7,15-dioxo-6,8,14,16-tetraoxa-11-azahenicosanedio ate] | – | – | – | 147.0 | 100.0 | 1.26 |
| CCCCCC(CCCCC)COC(=O)CCCC(CC)OC(=O)OCCN(CCOC(=O)OC(CC)CCCC(=O)OCC(CCCCC)CCCCC)CCN(CC)CC (stereo not drawn) [Example 20, Bis(2-pentylheptyl) 11-(2-(diethylamino)ethyl)-5,17-dietyl-7,15-dioxo-6,8,14,16-tetraoxa-11-azahenicosanedioate] | – | – | – | 133.4 | 100.0 | 3.22 |
| CCCCCC(CCCCC)COC(=O)CCCC(CCCCC)OC(=O)OCCN(CCOC(=O)OC(CCCCC)CCCC(=O)OCC(CCCCC)CCCCC)CCN(CC)CC (stereo not drawn) [Example 23, Bis(2-pentylheptyl) 11-(2-(diethylamino)ethyl)-7,15-dioxo-5,17-dipentyl-6,8,14,16-tetraoxa-11-azahenicosanedioate] | – | – | – | 76.8 | 97.5 | 3.60 |
| CCCCCCCC(CCCC(=O)OCC(CCCCC)CCCCC)OC(=O)OCCN(CCOC(=O)OC(CCCCCCC)CCCC(=O)OCC(CCCCC)CCCCC)CCN(CC)CC (stereo not drawn) [Example 24, Bis(2-pentylheptyl) 11-(2-(diethylamino)ethyl)-5,17-diheptyl-7,15-dioxo-6,8,14,16-tetraoxa-11-azahenicosanedioate] | – | – | – | 80.6 | 97.9 | 1.46 |
| CCCCCCC(CCCC(=O)OCCC12CC3CC(CC(C3)C1)C2)OC(=O)OCCN(CCOC(=O)OC(CCCCCC)CCCC(=O)OCCC12CC3CC(CC(C3)C1)C2)CCN(CC)CC (stereo not drawn) [Example 27, Bis (2-(((3r,5r,7r)-adamantan-1-yl)ethyl)11-(2-(diethylamino)ethyl)-5,17-dihexyl-7,15-dioxo-6,8,1 4,16-tetraoxa-11-azahenicosanedioate] | – | – | – | 101.5 | 99.8 | 3.60 |
